From US20230054595A1, “NOVEL DRUGGABLE TARGETS FOR THE TREATMENT OF INFLAMMATORY DISEASES SUCH AS SYSTEMIC LUPUS ERYTHEMATOSUS (SLE) AND METHODS FOR DIAGNOSIS AND TREATMENT USING THE SAME” (THE CHILDREN'S HOSPITAL OF PHILADELPHIA, priority 2019, published 2023)

Tested on: TFH cells
Experiment: IL-21 secretion by in vitro differentiated TFH cells cultured with pharmacologic inhibitors (ELISA)
Format: cell-based, human
Settings: 5 days with inhibitor (A64 150-2500 nM; PF06260933 3.7-100 nM), restimulated with anti-CD3+anti-CD28, ELISA
Procedure: Human primary CD4+ T cells were cultured under TFH condition for 5 days in the presence of the indicated concentrations of each inhibitor (150 nM to 2500 nM for A64, 3.7 nM to 100 nM for PF06260933). In addition, anti-CD3- and anti-CD28-stimulated human CD4+ T cells (non-TFH) were cultured in the presence of inhibitors. After 5 days of primary culture, cells were harvested and 10^6 cells were restimulated with plate-bound human anti-CD3+ anti-CD28 (1 ug/ml each) in the presence of inhibitors. Culture supernatants were collected at the indicated timepoints for measurement of IL-2 and IL-21 by ELISA (eBioscience).

Nc1ccc(-c2cnc(N)c(-c3ccc(Cl)cc3)c2)cn1 [PF06260933]
IL-21 production by TFH cells: dose-dependent reduction
IL-21 production by TFH cells (listed as MINK inhibitory drug): dose-dependent inhibition
